Source: PubChem BioAssay (NCI)
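How tested: cells in 96-well plates exposed to compound for 48 hours at five concentrations. TGI: total growth inhibition.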

Assays:
Assay in all cases: DTP human tumour cell line panel, 48 h
UO-31 renal = test system: UO-31 renal
CCRF-CEM leukemia = test system: CCRF-CEM leukemia
HL-60(TB) leukemia = test system: HL-60(TB) leukemia
SF-268 CNS = test system: SF-268 CNS
MDA-N = test system: MDA-N
OVCAR-3 ovarian = test system: OVCAR-3 ovarian
SW-620 colon = test system: SW-620 colon
EKVX NSCLC = test system: EKVX NSCLC
IGROV1 ovarian = test system: IGROV1 ovarian
HT29 colon = test system: HT29 colon
ACHN renal = test system: ACHN renal
NCI-H460 lung = test system: NCI-H460 lung
NCI-H522 lung = test system: NCI-H522 lung
SF-295 CNS = test system: SF-295 CNS
LOX IMVI melanoma = test system: LOX IMVI melanoma
HCT-116 colon = test system: HCT-116 colon
NCI-H226 lung = test system: NCI-H226 lung
OVCAR-5 ovarian = test system: OVCAR-5 ovarian
SNB-19 CNS = test system: SNB-19 CNS
BT-549 breast = test system: BT-549 breast
HOP-92 NSCLC = test system: HOP-92 NSCLC
HCT-15 colon = test system: HCT-15 colon
KM12 colon = test system: KM12 colon
NCI-H23 lung = test system: NCI-H23 lung
COLO 205 colon = test system: COLO 205 colon
SK-MEL-2 melanoma = test system: SK-MEL-2 melanoma
MDA-MB-435 = test system: MDA-MB-435
MDA-MB-231 breast = test system: MDA-MB-231 breast
SK-OV-3 ovarian = test system: SK-OV-3 ovarian
MALME-3M melanoma = test system: MALME-3M melanoma
RPMI-8226 leukemia = test system: RPMI-8226 leukemia
NCI/ADR-RES ovarian = test system: NCI/ADR-RES ovarian
A549 NSCLC = test system: A549 NSCLC
SNB-75 CNS = test system: SNB-75 CNS
DU-145 prostate = test system: DU-145 prostate
OVCAR-8 ovarian = test system: OVCAR-8 ovarian
TK-10 renal = test system: TK-10 renal
UACC-257 melanoma = test system: UACC-257 melanoma
A498 renal = test system: A498 renal
HOP-62 NSCLC = test system: HOP-62 NSCLC
SR leukemia = test system: SR leukemia
MOLT-4 leukemia = test system: MOLT-4 leukemia
RXF 393 renal = test system: RXF 393 renal
HS 578T breast = test system: HS 578T breast
K-562 leukemia = test system: K-562 leukemia
OVCAR-4 ovarian = test system: OVCAR-4 ovarian
PC-3 prostate = test system: PC-3 prostate
M14 melanoma = test system: M14 melanoma
SF-539 CNS = test system: SF-539 CNS
U251 CNS = test system: U251 CNS
T-47D breast = test system: T-47D breast
CAKI-1 renal = test system: CAKI-1 renal
SN12C renal = test system: SN12C renal
SK-MEL-5 melanoma = test system: SK-MEL-5 melanoma
SK-MEL-28 melanoma = test system: SK-MEL-28 melanoma
786-0 renal = test system: 786-0 renal
UACC-62 melanoma = test system: UACC-62 melanoma
MCF7 breast = test system: MCF7 breast
HCC-2998 colon = test system: HCC-2998 colon

SMILES: COC1=CC(=O)C2=C(C1=O)[C@H]1CC[C@]3(C)[C@@H](OC(C)=O)CC[C@H]3[C@@H]1CC2
- TGI (UO-31 renal): > 100 µM
- TGI (CCRF-CEM leukemia): > 100 µM
- TGI (HL-60(TB) leukemia): 40.4 µM
- TGI (SF-268 CNS): > 100 µM
- TGI (MDA-N): > 100 µM
- TGI (OVCAR-3 ovarian): > 100 µM
- TGI (SW-620 colon): > 100 µM
- TGI (EKVX NSCLC): 28.5 µM
- TGI (IGROV1 ovarian): > 100 µM
- TGI (HT29 colon): 48.5 µM
- TGI (ACHN renal): > 100 µM
- TGI (NCI-H460 lung): > 100 µM
- TGI (NCI-H522 lung): > 100 µM
- TGI (SF-295 CNS): > 100 µM
- TGI (LOX IMVI melanoma): 36.7 µM
- TGI (HCT-116 colon): > 100 µM
- TGI (NCI-H226 lung): > 100 µM
- TGI (OVCAR-5 ovarian): > 100 µM
- TGI (SNB-19 CNS): > 100 µM
- TGI (BT-549 breast): > 100 µM
- TGI (HOP-92 NSCLC): 24 µM
- TGI (HCT-15 colon): > 100 µM
- TGI (KM12 colon): > 100 µM
- TGI (NCI-H23 lung): > 100 µM
- TGI (COLO 205 colon): > 100 µM
- TGI (SK-MEL-2 melanoma): > 100 µM
- TGI (MDA-MB-435): 38.2 µM
- TGI (MDA-MB-231 breast): 35.3 µM
- TGI (SK-OV-3 ovarian): > 100 µM
- TGI (MALME-3M melanoma): 59 µM
- TGI (RPMI-8226 leukemia): > 100 µM
- TGI (NCI/ADR-RES ovarian): > 100 µM
- TGI (A549 NSCLC): > 100 µM
- TGI (SNB-75 CNS): > 100 µM
- TGI (DU-145 prostate): > 100 µM
- TGI (OVCAR-8 ovarian): 53.9 µM
- TGI (TK-10 renal): > 100 µM
- TGI (UACC-257 melanoma): > 100 µM
- TGI (A498 renal): > 100 µM
- TGI (HOP-62 NSCLC): > 100 µM
- TGI (SR leukemia): > 100 µM
- TGI (MOLT-4 leukemia): 84 µM
- TGI (RXF 393 renal): > 100 µM
- TGI (HS 578T breast): > 100 µM
- TGI (K-562 leukemia): > 100 µM
- TGI (OVCAR-4 ovarian): 30.6 µM
- TGI (PC-3 prostate): > 100 µM
- TGI (M14 melanoma): > 100 µM
- TGI (SF-539 CNS): > 100 µM
- TGI (U251 CNS): > 100 µM
- TGI (T-47D breast): 49.4 µM
- TGI (CAKI-1 renal): > 100 µM
- TGI (SN12C renal): > 100 µM
- TGI (SK-MEL-5 melanoma): 48.8 µM
- TGI (SK-MEL-28 melanoma): > 100 µM
- TGI (786-0 renal): > 100 µM

SMILES: NC(=S)N/N=C\CC(O)(C(F)(F)F)C(F)(F)F
- TGI (UO-31 renal): > 10 µM
- TGI (CCRF-CEM leukemia): > 10 µM
- TGI (HL-60(TB) leukemia): > 10 µM
- TGI (SF-268 CNS): > 10 µM
- TGI (MDA-N): > 10 µM
- TGI (OVCAR-3 ovarian): > 10 µM
- TGI (SW-620 colon): > 10 µM
- TGI (EKVX NSCLC): > 10 µM
- TGI (IGROV1 ovarian): > 10 µM
- TGI (HT29 colon): > 10 µM
- TGI (ACHN renal): > 10 µM
- TGI (NCI-H460 lung): > 10 µM
- TGI (NCI-H522 lung): > 10 µM
- TGI (SF-295 CNS): > 10 µM
- TGI (LOX IMVI melanoma): > 10 µM
- TGI (HCT-116 colon): > 10 µM
- TGI (NCI-H226 lung): > 10 µM
- TGI (SNB-19 CNS): > 10 µM
- TGI (HOP-92 NSCLC): > 10 µM
- TGI (HCT-15 colon): > 10 µM
- TGI (KM12 colon): > 10 µM
- TGI (NCI-H23 lung): > 10 µM
- TGI (COLO 205 colon): > 10 µM
- TGI (SK-MEL-2 melanoma): > 10 µM
- TGI (MDA-MB-435): > 10 µM
- TGI (UACC-62 melanoma): > 10 µM
- TGI (MDA-MB-231 breast): > 10 µM
- TGI (SK-OV-3 ovarian): > 10 µM
- TGI (MALME-3M melanoma): > 10 µM
- TGI (RPMI-8226 leukemia): > 10 µM
- TGI (NCI/ADR-RES ovarian): > 10 µM
- TGI (A549 NSCLC): > 10 µM
- TGI (SNB-75 CNS): > 10 µM
- TGI (DU-145 prostate): > 10 µM
- TGI (OVCAR-8 ovarian): > 10 µM
- TGI (TK-10 renal): > 10 µM
- TGI (UACC-257 melanoma): > 10 µM
- TGI (A498 renal): > 10 µM
- TGI (HOP-62 NSCLC): > 10 µM
- TGI (SR leukemia): > 10 µM
- TGI (MOLT-4 leukemia): > 10 µM
- TGI (RXF 393 renal): > 10 µM
- TGI (HS 578T breast): > 10 µM
- TGI (K-562 leukemia): > 10 µM
- TGI (OVCAR-4 ovarian): > 10 µM
- TGI (PC-3 prostate): > 10 µM
- TGI (M14 melanoma): > 10 µM
- TGI (SF-539 CNS): > 10 µM
- TGI (MCF7 breast): > 10 µM
- TGI (HCC-2998 colon): > 10 µM
- TGI (U251 CNS): > 10 µM
- TGI (T-47D breast): > 10 µM
- TGI (CAKI-1 renal): > 10 µM
- TGI (SN12C renal): > 10 µM
- TGI (SK-MEL-5 melanoma): > 10 µM
- TGI (SK-MEL-28 melanoma): > 10 µM
- TGI (786-0 renal): > 10 µM
